Results reported in ChEMBL document CHEMBL5241104, “Reactive metabolites of the anticonvulsant drugs and approaches to minimize the adverse drug reaction” (Eur J Med Chem, 2021).

Assays:
Mus musculus [1] = assay: Anticonvulsant activity in mouse assessed as protection against maximal electroshock induced seizure at ip administration for 120 mins; assay type: functional; settings: 2 h
Mus musculus [2] = assay: Anticonvulsant activity in mouse assessed as inhibition of maximal electroshock induced seizure at 200 mg/kg,po administration for 120 mins; assay type: functional; settings: 2 h
Mus musculus [3] = assay: Anticonvulsant activity in Albino mouse assessed as protection against Sc-PTZ induced seizure at ip administration for 30 mins; assay type: functional; settings: 0.5 h
Mus musculus [4] = assay: Anticonvulsant activity in Swiss albino mouse assessed as protection against PTZ induced seizure at ip administration for 30 mins; assay type: functional; settings: 0.5 h
[5] = Toxicity in Swiss albino mouse assessed as median toxicity dose at ip administration; assay type: organism-based; settings: in vivo
Mus musculus [6] = assay: Anticonvulsant activity in Albino mouse assessed as protection against Sc-metrazol induced seizure at ip administration; assay type: functional
Mus musculus [7] = assay: Anticonvulsant activity in Albino mouse assessed as protection against 6-Hz psychomotor induced seizure at ip administration; assay type: functional
Mus musculus [8] = assay: Anticonvulsant activity in Albino mouse assessed as protection against maximal electroshock induced seizure at ip administration; assay type: functional
[9] = Protective index, ratio of TD50 for toxicity in Sprague-Dawley rat at po administration to ED50 for anticonvulsant activity in Sprague-Dawley rat assessed as protection against pilocarpine induced epilepticus at po administration; assay type: organism-based; settings: in vivo, read-out: Ratio TD50/ED50
Rattus norvegicus [10] = assay: Anticonvulsant activity in Sprague-Dawley rat assessed as protection against pilocarpine induced epilepticus at po administration; assay type: functional
Rattus norvegicus [11] = assay: Anticonvulsant activity in Sprague-Dawley rat assessed as protection against Sc-metrazol induced seizure at po administration; assay type: functional
[12] = Neurotoxicity in Sprague-Dawley rat assessed as median toxic dose at ip administration; assay type: toxicity, organism-based; settings: in vivo
[13] = Protective index, ratio of TD50 for toxicity in Wistar rat assessed as median toxicity dose at po administration for 2 hrs by rotorod test to ED50 for anticonvulsant activity in Wistar rat assessed as protection against maximal electroshock induced seizure at po administration for 2 hrs; assay type: organism-based; settings: in vivo, read-out: Ratio TD50/ED50
[14] = Protective index, ratio of TD50 for toxicity in Wistar rat assessed as median toxicity dose at po administration for 4 hrs by rotorod test to ED50 for anticonvulsant activity in Wistar rat assessed as protection against maximal electroshock induced seizure at po administration for 4 hrs; assay type: organism-based; settings: in vivo, read-out: Ratio TD50/ED50
[15] = Displacement of 3[H]BTX from rat brain membrane voltage-sensitive sodium channel incubated for 1.5 hrs by scintillation counting analysis; assay type: cell membranes
Rattus norvegicus [16] = assay: Anticonvulsant activity in Wistar rat assessed as protection against maximal electroshock induced seizure at po administration for 8 hrs; assay type: functional
[17] = Protective index, ratio of TD50 for toxicity in Wistar rat assessed as median toxicity dose at po administration for 8 hrs by rotorod test to ED50 for anticonvulsant activity in Wistar rat assessed as protection against maximal electroshock induced seizure at po administration for 8 hrs; assay type: organism-based; settings: in vivo, read-out: Ratio TD50/ED50
Rattus norvegicus [18] = assay: Anticonvulsant activity in Wistar rat assessed as protection against maximal electroshock induced seizure at po administration for 4 hrs; assay type: functional
Rattus norvegicus [19] = assay: Anticonvulsant activity in Wistar rat assessed as protection against maximal electroshock induced seizure at po administration for 2 hrs; assay type: functional
Rattus norvegicus [20] = assay: Anticonvulsant activity in Sprague-Dawley rat assessed as protection against maximal electroshock induced seizure at po administration; assay type: functional
Mus musculus [21] = assay: Anticonvulsant activity in mouse assessed as protection against Sc-pTZ induced seizure at ip administration for 5 mins; assay type: functional
[22] = Toxicity in CF-1 mouse assessed as median toxic dose at ip administrated upto 4 hrs; assay type: organism-based; settings: in vivo
Mus musculus [23] = assay: Anticonvulsant activity in CF-1 mouse assessed as protection against maximal electroshock induced seizure at ip administrated upto 4 hrs; assay type: functional
[24] = Protective index, ratio of TD50 for toxicity in CF-1 mouse assessed as median toxicity dose at ip administration upto 4 hrs by rotorod test to ED50 for anticonvulsant activity in CF-1 mouse assessed as protection against maximal electroshock induced seizure at ip administration upto 4 hrs; assay type: organism-based; settings: in vivo, read-out: Ratio TD50/ED50
[25] = Hepatotoxicity in rat assessed as total albumin level at 100 mg/kg,ip administrated for 2 hrs by spectrophotometric method; assay type: toxicity, organism-based; settings: in vivo
[26] = Hepatotoxicity in rat assessed as total protein level at 100 mg/kg,ip administrated for 2 hrs by spectrophotometric method; assay type: toxicity, organism-based; settings: in vivo
Rattus norvegicus [27] = assay: Anticonvulsant activity in rat brain assessed as increase in GABA level at 100 mg/kg,ip administrated for 2 hrs by spectrophotometric method; assay type: functional

Work on `CC1(C)OCC(CO[S+](N)[O-])O1` (configuration not stated) yielded an ED50 (Mus musculus [1]) of 105 mg/kg and an inhibition in vivo at 200 mg/kg (Mus musculus [2]) of at least 80%.

In the case of `O=C1Nc2ccc(Cl)cc2C(c2ccccc2)=NC1/N=N/c1ccc([N+](=O)[O-])cc1` (configuration not stated), the Activity (Mus musculus [3]) is reported as 100%.

With `CCCC(CCC)c1nnc(Nc2ccccc2)s1` the ED50 (Mus musculus [4]) was 187 mg/kg and the TD50 [5] was 419 mg/kg.

For `CCCC(CC)C(=O)NOC` (configuration not stated), the ED50 (Mus musculus [6]) was 70 mg/kg, the ED50 (Mus musculus [7]) was 50 mg/kg and the ED50 (Mus musculus [8]) was 142 mg/kg. The selectivity ratio [9] was over 5.5, the ED50 (Rattus norvegicus [10]) was 200 mg/kg and the ED50 (Rattus norvegicus [11]) was 36 mg/kg. The TD50 [12] was 118 mg/kg.

Work on `NC(=O)N1c2ccccc2C/C(=N/O)c2ccccc21` yielded a selectivity ratio at 2 h [13] of over 166, a selectivity ratio at 4 h [14] of over 100 and an IC50 [15] of 418 µM. The ED50 (Rattus norvegicus [16]) was 17 mg/kg, the selectivity ratio at 8 h [17] was over 117 and the ED50 (Rattus norvegicus [18]) was 20 mg/kg. The ED50 (Rattus norvegicus [19]) was 12 mg/kg.

Work on `O=C1NC(c2ccccc2)(C2CC2)C(=O)N1CN1CCN(c2ccccc2)CC1` (configuration not stated) yielded an ED50 (Rattus norvegicus [20]) of 5.29 mg/kg.

`CC(C)(C)NC(=O)C(c1cccc(Br)c1)N1Cc2cnnn2-c2cc(Cl)ccc2C1=O` (configuration not stated) showed an Activity (Mus musculus [21]) of 56.94%.

`CC1CC(Nc2ccon2)=CC(=O)C1C(=O)OC(C)(C)C` (configuration not stated) showed a TD50 at 4 h [22] of over 500 mg/kg, an ED50 (Mus musculus [23]) of 28.1 mg/kg and a selectivity ratio at 4 h [24] of over 17.8.

For `Nc1ccc(Cl)cc1-c1n[nH]c(=O)n(-c2ccc(O)cc2)c1=O`, the Activity [25] was 1.61 g/dL, the Activity [26] was 4.78 g/dL and the Activity (Rattus norvegicus [27]) was 87.4 mg.
